Source: PMC2655291 (BMC Structural Biology, 2009)
Like-named read-outs stand apart in the source and are kept apart here. Values belong to the compound of their own block, whether it stands above or below them.

What was measured:
[1] = molecular target: T1, quinone reductase 2 (NQO2) (Homo sapiens, UniProt P16083)
T1 sequence (P16083 1-231): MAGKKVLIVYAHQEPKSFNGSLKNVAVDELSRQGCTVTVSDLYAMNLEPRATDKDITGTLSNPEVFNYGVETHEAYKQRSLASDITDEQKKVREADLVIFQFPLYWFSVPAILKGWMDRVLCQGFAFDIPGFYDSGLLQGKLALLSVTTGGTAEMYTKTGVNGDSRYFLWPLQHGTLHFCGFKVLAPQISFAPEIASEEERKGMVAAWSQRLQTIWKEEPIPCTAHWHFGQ

[2] = molecular target: T1, quinone reductase 2 (NQO2); remark: listed apart in the source
NQO2 S16D mutant (human) = assay: SEC; analytical gel filtration of the purified mutant (data not shown); monomer and dimer

- IC50 [1]: 381 nM
Compound: Cc1cn(-c2cc(NC(=O)c3ccc(C)c(Nc4nccc(-c5cccnc5)n4)c3)cc(C(F)(F)F)c2)cn1 [nilotinib]

Compound: O=c1c(O)c(-c2ccc(O)c(O)c2)oc2cc(O)cc(O)c12 [quercetin]
- IC50 [2]: 42 nM

- stoichiometry N (NQO2 S16D mutant (human)): 2
Compound: NQO2 S16D mutant (enzyme)
